From ChEMBL document CHEMBL1152201, “Synthesis of 3,6-bicyclolides: a novel class of macrolide antibiotics” (2008)
In brackets after ≈: the same amount, converted by molar mass.

Experiments:
Assay type in all cases: functional
[1] = tested on: Staphylococcus aureus; experiment: Antibacterial activity against MLSB-resistant Staphylococcus aureus 27660 by broth-microdilution method
[2] = tested on: Streptococcus pneumoniae; experiment: Antibacterial activity against erythromycin-susceptible Streptococcus pneumoniae 49619 by broth-microdilution method
[3] = tested on: Streptococcus pyogenes; experiment: Antibacterial activity against erythromycin-resistant Streptococcus pyogenes 2912 expressing erm gene by broth-microdilution method
[4] = tested on: Staphylococcus aureus; experiment: Antibacterial activity against erythromycin-susceptible Staphylococcus aureus 29213 by broth-microdilution method; conditions: ATCC29213
[5] = tested on: Streptococcus pyogenes; experiment: Antibacterial activity against erythromycin-susceptible Streptococcus pyogenes 19615 by broth-microdilution method
[6] = tested on: Streptococcus pneumoniae; experiment: Antibacterial activity against erythromycin-resistant Streptococcus pneumoniae 700906 expressing […] gene by broth-microdilution method
[7] = tested on: Streptococcus pneumoniae; experiment: Antibacterial activity against erythromycin-resistant Streptococcus pneumoniae 7701 expressing mef gene by broth-microdilution method
[8] = tested on: Haemophilus influenzae; experiment: Antibacterial activity against ampicillin-susceptible Haemophilus influenzae by broth-microdilution method
[9] = tested on: Staphylococcus aureus; experiment: Antibacterial activity against methicillin-resistant Staphylococcus aureus 33591 by broth-microdilution method
[10] = tested on: Haemophilus influenzae; experiment: Antibacterial activity against ampicillin-resistant Haemophilus influenzae 33929 by broth-microdilution method
[11] = tested on: Streptococcus pyogenes; experiment: Antibacterial activity against erythromycin-resistant Streptococcus pyogenes 1323 expressing mef gene by broth-microdilution method
[12] = tested on: Moraxella catarrhalis; experiment: Antibacterial activity against Moraxella catarrhalis by broth-microdilution method
[13] = tested on: Staphylococcus aureus; experiment: Antibacterial activity against macrolide-susceptible Staphylococcus aureus Smith by broth-microdilution method
[14] = tested on: Staphylococcus aureus; experiment: Antibacterial activity against macrolide-susceptible Staphylococcus aureus Smith infected in mouse
[15] = tested on: Staphylococcus aureus; experiment: Antibacterial activity against macrolide-resistant Staphylococcus aureus 7701 infected in mouse

Structure (SMILES) | MIC [1] [µg/mL] | MIC [2] [µg/mL] | MIC [3] [µg/mL] | MIC [4] [µg/mL] | MIC [5] [µg/mL] | MIC [6] [µg/mL] | MIC [7] [µg/mL] | MIC [8] [µg/mL] | MIC [9] [µg/mL] | MIC [10] [µg/mL] | MIC [11] [µg/mL] | MIC [12] [µg/mL] | MIC [13] [µg/mL] | ED50 [14] [mg/kg] | ED50 [15] [mg/kg]
C=C1CO[C@H]2[C@H](C)[C@@H](O[C@@H]3O[C@H](C)C[C@H](N(C)C)[C@H]3O)[C@](C)(C[C@@H](C)[C@H](N)[C@H](C)[C@@H](O)[C@](C)(O)[C@@H](CC)OC(=O)[C@@H]2C)OC1 | 4 (≈ 6.36 µM) | ≤ 0.06 | 64 (≈ 102 µM) | 4 (≈ 6.36 µM) | ≤ 0.06 | > 64 | 0.125 (≈ 0.199 µM) | 32 (≈ 50.9 µM) | > 64 | 32 (≈ 50.9 µM) | 0.25 (≈ 0.398 µM) | 0.5 (≈ 0.795 µM) |  |  | 
C=C1CO[C@H]2[C@H](C)[C@@H](O[C@@H]3O[C@H](C)C[C@H](N(C)C)[C@H]3O)[C@](C)(C[C@@H](C)C(=N)[C@H](C)[C@@H](O)[C@](C)(O)[C@@H](CC)OC(=O)[C@@H]2C)OC1 | 2 (≈ 3.19 µM) | 0.125 (≈ 0.199 µM) | 64 (≈ 102 µM) | 2 (≈ 3.19 µM) | 0.125 (≈ 0.199 µM) | > 64 | 0.25 (≈ 0.399 µM) | 16 (≈ 25.5 µM) | > 64 | 64 (≈ 102 µM) | 0.5 (≈ 0.798 µM) | 0.5 (≈ 0.798 µM) |  |  | 
C=C1CO[C@H]2[C@H](C)[C@@H](O[C@@H]3O[C@H](C)C[C@H](N(C)C)[C@H]3O)[C@](C)(C[C@@H](C)C(=O)[C@H](C)[C@@H](O)[C@](C)(O)[C@@H](CC)OC(=O)[C@@H]2C)OC1 | 1 (≈ 1.59 µM) | 0.125 (≈ 0.199 µM) | > 64 | 1 (≈ 1.59 µM) | 0.25 (≈ 0.398 µM) | > 64 | 0.25 (≈ 0.398 µM) | 64 (≈ 102 µM) | > 64 | 64 (≈ 102 µM) | 0.5 (≈ 0.796 µM) | 0.5 (≈ 0.796 µM) |  |  | 
C=C1CO[C@H]2[C@H](C)[C@@H](O[C@@H]3O[C@H](C)C[C@H](N(C)C)[C@H]3O)[C@](C)(C[C@@H](C)C(=O)[C@H](C)[C@@H]3NC(=O)O[C@]3(C)[C@@H](CC)OC(=O)[C@@H]2C)OC1 | 0.125 (≈ 0.191 µM) | ≤ 0.06 | > 64 | 0.125 (≈ 0.191 µM) | ≤ 0.06 | > 64 |  | 2 (≈ 3.06 µM) | > 64 | 4 (≈ 6.13 µM) | 0.125 (≈ 0.191 µM) | ≤ 0.06 | 0.125 (≈ 0.191 µM) | 10 | 7
C=C1CO[C@H]2[C@H](C)[C@@H](O[C@@H]3O[C@H](C)C[C@H](N(C)C)[C@H]3O)[C@](C)(C[C@@H](C)/C(=N\O)[C@H](C)[C@@H](O)[C@](C)(O)[C@@H](CC)OC(=O)[C@@H]2C)OC1 | 1 (≈ 1.56 µM) | ≤ 0.06 | > 64 | 1 (≈ 1.56 µM) | 0.125 (≈ 0.194 µM) | > 64 | 0.25 (≈ 0.389 µM) | 32 (≈ 49.8 µM) | > 64 | 32 (≈ 49.8 µM) | 0.25 (≈ 0.389 µM) | 0.25 (≈ 0.389 µM) |  |  | 
CC[C@H]1OC(=O)[C@H](C)[C@@H](O[C@H]2C[C@@](C)(OC)[C@@H](O)[C@H](C)O2)[C@H](C)[C@@H](O[C@@H]2O[C@H](C)C[C@H](N(C)C)[C@H]2O)[C@](C)(O)C[C@@H](C)C(=O)[C@H](C)[C@@H](O)[C@]1(C)O [ERYTHROMYCIN] | > 64 | ≤ 0.06 | > 64 | 0.5 (≈ 0.681 µM) | 0.015 (≈ 0.0204 µM) | > 64 | 4 (≈ 5.45 µM) | 4 (≈ 5.45 µM) | > 64 | 4 (≈ 5.45 µM) | 16 (≈ 21.8 µM) | 0.13 (≈ 0.177 µM) |  |  | 
CC[C@H]1OC(=O)[C@H](C)C(=O)[C@H](C)[C@@H](O[C@@H]2O[C@H](C)C[C@H](N(C)C)[C@H]2O)[C@](C)(OC)C[C@@H](C)C(=O)[C@H](C)[C@H]2N(CCCCn3cnc(-c4cccnc4)c3)C(=O)O[C@]12C [TELITHROMYCIN] |  |  |  |  |  |  |  |  |  |  |  |  | 0.125 (≈ 0.154 µM) | 17.2 | 17.2
